As usually defined, the inhibition is the drop in the measured response relative to a control, in per cent. Broadly, the IC50 is the concentration needed to halve the response being measured. Lower therefore signals inhibition by little substance. For orientation: Ki means the dissociation constant of the complex between target and ligand, obtained from inhibition or displacement. Broadly, the kinact is the maximal first-order rate at which the target is inactivated. What is called kinact/KI is the second-order rate constant of inactivation.

Here are results for 1 molecule from ChEMBL document CHEMBL4007434, “Indazole-Based Covalent Inhibitors To Target Drug-Resistant Epidermal Growth Factor Receptor” (J Med Chem, 2017).

For data set [1], the target named is Tyrosine-protein kinase BTK (Homo sapiens) (UniProt Q06187). Briefly: Inhibition of full-length recombinant human His-tagged cytoplasmic BTK expressed in baculovirus expression system at 1 uM by Z'-LYTE assay.
In data set [2] the target is T1, Epidermal growth factor receptor (Homo sapiens, UniProt P00533, L858R/T790M).
Data set [3] concerns the target T2, Epidermal growth factor receptor (Homo sapiens, UniProt P00533). Description: Reversible inhibition of wild-type human N-terminal GST-tagged EGFR cytoplasmic domain (669 to 1210 end amino acid residues) expressed in baculovirus expression system using TK peptide substrate preincubated for 2 to 90 mins followed by 6-fold dilution.
Data set [4] deals with T2, Epidermal growth factor receptor. The format is ADME.
For data set [5], the system named is Epidermal growth factor receptor (Homo sapiens), P00533 [L858R,T790M].
Data set [6] relates to Epidermal growth factor receptor (Homo sapiens), P00533 [L858R,T790M,C797S]. Description: Inhibition of EGFR L858R/T790M/C797S triple mutant (unknown origin) by HTRF assay. A general note: Time-resolved FRET reads energy transfer from a long-lived donor to a nearby acceptor.
The target in data set [7] is T2, Epidermal growth factor receptor. Briefly: Reversible inhibition of wild-type human N-terminal GST-tagged EGFR cytoplasmic domain (669 to 1210 end amino acid residues) expressed in baculovirus expression system using TK peptide substrate assessed as inactivation constant preincubated for 2 to 90 mins followed by 6-fold dilution.
The target is the same in data set [8]. Description: Ratio of Kinact to Ki for reversible inhibition of wild-type human N-terminal GST-tagged EGFR cytoplasmic domain (669 to 1210 end amino acid residues) expressed in baculovirus expression system.
The test system of data set [9] is Epidermal growth factor receptor (Homo sapiens), P00533 [L858R,T790M]. The following applies: 1 uM.
Data set [10] relates to Liver. Description: Stability in mouse liver microsomes at 3 uM up to 50 mins by LCMS analysis. The format is ADME, microsome. On the technique in general: Liver microsomes are vesicles of endoplasmic reticulum, rich in cytochrome P450 enzymes.
Data set [11] addresses Epidermal growth factor receptor (Homo sapiens, UniProt P00533, L858R). Description: Reversible inhibition of human N-terminal GST-tagged EGFR L858R mutant cytoplasmic domain (669 to 1210 end amino acid residues) expressed in baculovirus expression system using TK peptide substrate preincubated for 2 to 90 mins followed by 6-fold dilution.
The nature of data set [12]: Stability in human plasma assessed as compound remaining at 5 uM after 1 hr by LCMS analysis. The format is ADME, cell-free. The conditions noted are these: read-out: Stability.
The subject of data set [13] is Liver. Description: Stability in human liver microsomes at 3 uM up to 50 mins by LCMS analysis. The format is ADME, microsome.
Data set [14] has as its target Receptor tyrosine-protein kinase erbB-4 (Homo sapiens) (UniProt Q15303). Briefly: Inhibition of recombinant truncated human His/IgG1 Fc-tagged ERBB4 expressed in mammalian expression system at 1 uM by Z'-LYTE assay.
Data set [15] has as its target Tyrosine-protein kinase Blk (Homo sapiens) (UniProt P51451). Description: Inhibition of full-length recombinant human His-tagged cytoplasmic BLK expressed in baculovirus expression system at 1 uM by Z'-LYTE assay.
The target of data set [16] is T1, Epidermal growth factor receptor. Briefly: Reversible inhibition of human N-terminal GST-tagged EGFR L858R/T790M double mutant cytoplasmic domain (669 to 1210 end amino acid residues) expressed in baculovirus expression system using TK peptide substrate preincubated for 2 to 90 mins followed by 6-fold dilution.
Data set [17] deals with Epidermal growth factor receptor (Homo sapiens), P00533 [T790M]. Briefly: Binding affinity to EGFR T790M mutant (unknown origin) assessed as covalent adduct formation at 100 uM after 1 hr by ESI-MS analysis.
Data set [18] concerns the target T3, Tyrosine-protein kinase TXK (Homo sapiens) (UniProt P42681).
T3 sequence (whole entry): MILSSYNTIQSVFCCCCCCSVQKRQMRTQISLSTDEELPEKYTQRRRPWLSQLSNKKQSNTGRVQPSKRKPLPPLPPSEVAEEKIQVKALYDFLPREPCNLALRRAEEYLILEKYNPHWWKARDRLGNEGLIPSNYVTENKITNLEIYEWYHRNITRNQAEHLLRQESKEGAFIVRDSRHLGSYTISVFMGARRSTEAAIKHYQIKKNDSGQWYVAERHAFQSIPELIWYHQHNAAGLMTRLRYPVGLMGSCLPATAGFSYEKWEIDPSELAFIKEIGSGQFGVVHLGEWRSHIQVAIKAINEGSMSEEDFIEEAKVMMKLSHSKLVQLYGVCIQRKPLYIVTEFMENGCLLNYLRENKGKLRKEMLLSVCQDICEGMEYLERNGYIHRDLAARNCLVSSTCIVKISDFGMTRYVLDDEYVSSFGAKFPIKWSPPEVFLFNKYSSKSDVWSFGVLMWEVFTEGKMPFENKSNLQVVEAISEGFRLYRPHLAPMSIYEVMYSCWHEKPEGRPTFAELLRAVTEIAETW
Description: Inhibition of full-length recombinant human N-terminal GST-tagged cytoplasmic TXK (260 to 527 amino acid residues) expressed in baculovirus expression system at 1 uM by Z'-LYTE assay.

The source made the active and inactive calls. The rule behind the calls is not given here.

Sequence of Receptor tyrosine-protein kinase erbB-4 (Homo sapiens) (Q15303 whole entry, the tested form may be a part): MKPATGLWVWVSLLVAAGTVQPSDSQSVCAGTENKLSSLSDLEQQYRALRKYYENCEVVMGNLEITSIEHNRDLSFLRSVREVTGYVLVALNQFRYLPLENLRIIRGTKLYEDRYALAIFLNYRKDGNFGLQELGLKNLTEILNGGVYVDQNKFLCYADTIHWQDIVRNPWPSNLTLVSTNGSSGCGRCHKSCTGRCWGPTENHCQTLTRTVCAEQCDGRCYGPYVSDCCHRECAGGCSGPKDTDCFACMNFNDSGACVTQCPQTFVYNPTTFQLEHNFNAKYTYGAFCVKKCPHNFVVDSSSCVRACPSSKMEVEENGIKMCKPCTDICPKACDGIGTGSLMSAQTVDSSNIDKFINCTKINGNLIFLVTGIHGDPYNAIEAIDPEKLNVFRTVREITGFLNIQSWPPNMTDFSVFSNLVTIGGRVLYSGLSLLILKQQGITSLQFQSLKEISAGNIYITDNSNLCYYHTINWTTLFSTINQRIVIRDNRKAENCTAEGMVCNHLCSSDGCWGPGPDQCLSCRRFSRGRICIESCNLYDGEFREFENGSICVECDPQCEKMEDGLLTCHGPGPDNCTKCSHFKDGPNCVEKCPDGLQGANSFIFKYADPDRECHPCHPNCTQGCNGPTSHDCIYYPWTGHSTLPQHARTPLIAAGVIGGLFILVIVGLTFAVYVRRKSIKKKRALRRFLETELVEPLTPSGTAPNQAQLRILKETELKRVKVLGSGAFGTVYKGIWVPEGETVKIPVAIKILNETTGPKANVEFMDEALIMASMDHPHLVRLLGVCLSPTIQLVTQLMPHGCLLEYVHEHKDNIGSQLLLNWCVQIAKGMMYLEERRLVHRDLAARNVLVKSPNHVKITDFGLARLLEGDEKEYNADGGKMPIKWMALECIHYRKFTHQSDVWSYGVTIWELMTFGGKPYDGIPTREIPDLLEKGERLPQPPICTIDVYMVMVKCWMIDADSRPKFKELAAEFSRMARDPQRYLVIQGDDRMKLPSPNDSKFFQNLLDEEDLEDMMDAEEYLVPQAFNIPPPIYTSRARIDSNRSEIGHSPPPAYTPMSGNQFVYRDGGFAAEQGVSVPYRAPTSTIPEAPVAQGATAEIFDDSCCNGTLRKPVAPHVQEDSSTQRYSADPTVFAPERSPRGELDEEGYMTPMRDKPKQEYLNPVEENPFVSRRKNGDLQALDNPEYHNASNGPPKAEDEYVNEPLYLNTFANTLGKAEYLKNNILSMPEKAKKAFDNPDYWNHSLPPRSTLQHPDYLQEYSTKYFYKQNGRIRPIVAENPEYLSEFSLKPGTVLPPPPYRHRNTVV
Sequence of Tyrosine-protein kinase BTK (Homo sapiens) (Q06187 whole entry): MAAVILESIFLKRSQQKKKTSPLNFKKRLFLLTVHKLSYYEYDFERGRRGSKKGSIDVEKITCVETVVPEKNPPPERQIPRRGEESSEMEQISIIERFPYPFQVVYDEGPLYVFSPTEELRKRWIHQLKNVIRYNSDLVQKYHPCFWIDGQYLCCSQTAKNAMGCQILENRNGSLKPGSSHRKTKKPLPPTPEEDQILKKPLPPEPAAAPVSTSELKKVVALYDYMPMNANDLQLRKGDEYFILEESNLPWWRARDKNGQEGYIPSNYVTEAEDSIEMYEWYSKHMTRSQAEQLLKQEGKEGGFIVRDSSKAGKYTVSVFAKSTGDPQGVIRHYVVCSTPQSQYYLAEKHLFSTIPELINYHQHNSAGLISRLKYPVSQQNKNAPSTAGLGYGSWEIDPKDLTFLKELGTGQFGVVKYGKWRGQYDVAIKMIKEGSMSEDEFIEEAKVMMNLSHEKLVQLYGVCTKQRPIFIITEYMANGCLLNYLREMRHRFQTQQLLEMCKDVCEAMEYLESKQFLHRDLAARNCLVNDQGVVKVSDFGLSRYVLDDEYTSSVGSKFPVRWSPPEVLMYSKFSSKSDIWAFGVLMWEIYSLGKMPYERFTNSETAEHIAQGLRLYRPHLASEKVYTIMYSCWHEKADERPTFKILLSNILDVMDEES
Sequence of Tyrosine-protein kinase Blk (Homo sapiens) (P51451 2-505 limits assumed): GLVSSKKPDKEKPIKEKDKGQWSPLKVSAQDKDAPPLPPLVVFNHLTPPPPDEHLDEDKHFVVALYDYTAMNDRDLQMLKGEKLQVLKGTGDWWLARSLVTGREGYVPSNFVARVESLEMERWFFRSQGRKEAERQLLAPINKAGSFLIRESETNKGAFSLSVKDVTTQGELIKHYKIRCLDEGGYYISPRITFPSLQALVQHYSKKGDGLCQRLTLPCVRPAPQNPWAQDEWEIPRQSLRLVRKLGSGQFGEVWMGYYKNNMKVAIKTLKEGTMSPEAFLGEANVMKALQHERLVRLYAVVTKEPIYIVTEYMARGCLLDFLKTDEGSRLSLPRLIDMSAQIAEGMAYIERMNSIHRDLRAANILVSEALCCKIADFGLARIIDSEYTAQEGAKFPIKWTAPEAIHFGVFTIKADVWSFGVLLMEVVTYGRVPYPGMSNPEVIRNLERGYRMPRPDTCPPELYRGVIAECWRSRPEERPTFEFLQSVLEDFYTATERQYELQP

For the molecule `C=CC(=O)Nc1cc(Nc2n[nH]c3cc(Nc4cccc(F)c4)ccc23)c(OC)cc1N(C)CCN(C)C`, the inhibition in data set [1] was greater than 85%; in data set [9] it was greater than 95%; in data set [15], greater than 85%; in data set [18] it was greater than 85%. Also, the IC50 in data set [2] and in data set [4] was less than 1 nM throughout. The Ki amounted to 5.1 nM in data set [3], 3.9 nM in data set [11] and 7.4 nM in data set [16]. This molecule registered a Kinact in [5] of 0.17 min⁻¹. Also, the inhibition entry in [6] is “inactive”. Further, the kinact in [7] was 0.00233 s⁻¹. In data set [8], the kinact/KI worked out at 470000 M⁻¹ s⁻¹. In addition, the Stability result with Liver [10] and with Liver [13] was “Stable” throughout. Further, the remaining at 1 h, 5 µM in data set [12] was greater than 75%. For the same molecule, in data set [14], the inhibition result was “Active”. Moreover, the result in data set [17] was Active.
